Measurements taken from US8497245B2, “Trypsin-like serine protease inhibitors, their preparation and use as selective inhibitors of the clotting factors IIa and Xa” (The Medicines Company (Leipzig) GmbH, priority 2010, dated 2013).

What was measured:
Assay type in all cases: biochemical
[1] = molecular target: T1, Subcomponent "r" of Human Complement Component 1 (h C1r) (Homo sapiens, UniProt P00736); assay: Inhibition of human C1r (reference enzyme); settings: S-2314 substrate; read-out: Ki h Clr
T1 construct: purchased Calbiochem
T1 sequence (P00736 464-705 limits assumed): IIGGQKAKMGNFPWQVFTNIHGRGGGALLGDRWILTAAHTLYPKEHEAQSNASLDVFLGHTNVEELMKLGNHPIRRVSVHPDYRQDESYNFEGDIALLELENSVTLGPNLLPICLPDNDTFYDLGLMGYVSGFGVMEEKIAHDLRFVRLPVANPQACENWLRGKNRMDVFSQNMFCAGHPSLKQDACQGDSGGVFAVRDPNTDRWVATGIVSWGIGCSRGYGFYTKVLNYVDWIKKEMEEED
T1 sequence (P00736 18-463 partner limits assumed): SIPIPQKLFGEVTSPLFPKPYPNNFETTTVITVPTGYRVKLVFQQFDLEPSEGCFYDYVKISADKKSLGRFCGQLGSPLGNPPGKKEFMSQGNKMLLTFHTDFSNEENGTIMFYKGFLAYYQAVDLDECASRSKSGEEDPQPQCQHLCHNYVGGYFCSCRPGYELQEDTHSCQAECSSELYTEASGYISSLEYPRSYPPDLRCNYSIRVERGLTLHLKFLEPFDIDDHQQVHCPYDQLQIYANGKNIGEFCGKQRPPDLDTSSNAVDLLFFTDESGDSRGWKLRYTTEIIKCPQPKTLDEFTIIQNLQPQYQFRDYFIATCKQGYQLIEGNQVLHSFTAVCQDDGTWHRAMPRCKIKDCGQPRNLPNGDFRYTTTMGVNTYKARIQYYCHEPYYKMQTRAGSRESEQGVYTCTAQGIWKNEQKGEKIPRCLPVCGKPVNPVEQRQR
Experimental: (§1) The inhibitory effect against the individual purified enzymes was determined in analogy to a previously disclosed method (Stürzebecher et al., J. Med. Chem., 40, 3091-3099 (1997)).
(§2) The release of p-nitroaniline (p-NA, the chromogenic product of the proteolytic activity), was determined by change in absorbance at 405 nm. The equilibrium rates were used to calculate the inhibitor/enzyme dissociation constant (Ki values) by parameter fitting in accordance with the rate equation for competitive inhibition using GraFit (version 4 from Erithacus). The results are reported as Ki values (nanomolar) in table 7 and are the average of at least three determinations.
(§3) Dissociation constants were calculated as described herein.

[2] = molecular target: T2, Human plasma kallikrein (h PK) (Homo sapiens, UniProt P03952); assay: Inhibition of human plasma kallikrein (reference enzyme); settings: S2302 substrate
T2 construct: purchased Enzyme Research Laboratories
T2 sequence (P03952 391-638 limits assumed): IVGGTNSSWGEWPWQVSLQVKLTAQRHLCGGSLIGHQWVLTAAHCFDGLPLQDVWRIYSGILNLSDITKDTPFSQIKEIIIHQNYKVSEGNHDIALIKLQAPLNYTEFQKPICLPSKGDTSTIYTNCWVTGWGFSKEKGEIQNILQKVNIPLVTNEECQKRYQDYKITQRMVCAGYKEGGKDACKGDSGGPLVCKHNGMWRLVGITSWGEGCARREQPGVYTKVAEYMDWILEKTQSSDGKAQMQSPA
T2 sequence (P03952 20-390 partner limits assumed): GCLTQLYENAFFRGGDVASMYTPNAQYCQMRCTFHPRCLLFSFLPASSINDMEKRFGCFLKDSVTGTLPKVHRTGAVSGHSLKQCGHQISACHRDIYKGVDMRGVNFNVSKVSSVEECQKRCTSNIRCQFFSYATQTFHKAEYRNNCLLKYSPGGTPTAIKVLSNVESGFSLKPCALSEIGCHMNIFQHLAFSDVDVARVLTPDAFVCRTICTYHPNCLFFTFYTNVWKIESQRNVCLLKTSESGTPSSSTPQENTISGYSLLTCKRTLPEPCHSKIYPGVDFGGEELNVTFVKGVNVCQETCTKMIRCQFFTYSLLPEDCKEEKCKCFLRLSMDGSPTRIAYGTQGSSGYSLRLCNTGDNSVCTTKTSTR
Experimental: as §1, §2, §3

[3] = molecular target: T3, Human Activated Protein C (h aPC) (Homo sapiens, UniProt P04070); assay: Inhibition of human activated protein C (reference enzyme); settings: Pefachrome PCa substrate
T3 construct: purchased Enzyme Research Laboratories
T3 sequence (P04070 212-450 limits assumed): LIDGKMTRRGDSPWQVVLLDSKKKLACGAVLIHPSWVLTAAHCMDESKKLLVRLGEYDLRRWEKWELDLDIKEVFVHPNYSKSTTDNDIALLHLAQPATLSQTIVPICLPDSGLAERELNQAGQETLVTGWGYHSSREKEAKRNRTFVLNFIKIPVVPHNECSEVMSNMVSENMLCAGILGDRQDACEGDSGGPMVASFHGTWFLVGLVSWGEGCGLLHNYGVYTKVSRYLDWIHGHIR
T3 sequence (P04070 43-197 partner limits assumed): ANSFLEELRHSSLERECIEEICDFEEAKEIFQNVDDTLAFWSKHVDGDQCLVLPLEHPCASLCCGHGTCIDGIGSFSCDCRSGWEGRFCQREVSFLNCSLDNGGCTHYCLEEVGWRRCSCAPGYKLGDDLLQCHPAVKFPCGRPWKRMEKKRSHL
Experimental: as §1, §2, §3

[4] = molecular target: T4, Human plasmin (h plasmin) (Homo sapiens, UniProt P00747); assay: Inhibition of human plasmin (reference enzyme); settings: Chromozym PL substrate
T4 construct: purchased Calbiochem
T4 sequence (P00747 581-810 limits assumed): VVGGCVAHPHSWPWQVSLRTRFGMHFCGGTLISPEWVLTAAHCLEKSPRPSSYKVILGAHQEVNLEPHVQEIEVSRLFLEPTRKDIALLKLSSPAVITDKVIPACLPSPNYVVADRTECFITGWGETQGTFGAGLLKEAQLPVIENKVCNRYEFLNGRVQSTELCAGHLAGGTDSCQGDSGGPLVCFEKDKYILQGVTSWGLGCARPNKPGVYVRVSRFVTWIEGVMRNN
T4 sequence (P00747 97-580 partner limits assumed): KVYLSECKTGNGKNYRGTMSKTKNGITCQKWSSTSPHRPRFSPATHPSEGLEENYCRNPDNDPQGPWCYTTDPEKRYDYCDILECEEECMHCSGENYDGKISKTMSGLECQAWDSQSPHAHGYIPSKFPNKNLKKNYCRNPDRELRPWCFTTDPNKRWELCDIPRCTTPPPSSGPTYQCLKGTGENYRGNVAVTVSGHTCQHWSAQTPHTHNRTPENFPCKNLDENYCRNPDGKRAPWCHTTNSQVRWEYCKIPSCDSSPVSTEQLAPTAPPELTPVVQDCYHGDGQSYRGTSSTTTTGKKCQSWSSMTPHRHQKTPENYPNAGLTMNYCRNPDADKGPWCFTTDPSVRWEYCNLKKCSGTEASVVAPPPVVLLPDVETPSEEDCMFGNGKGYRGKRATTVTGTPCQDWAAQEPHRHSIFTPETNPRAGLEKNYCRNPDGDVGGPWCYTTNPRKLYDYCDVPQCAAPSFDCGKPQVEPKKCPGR
Experimental: as §1, §2, §3

human Factor Xa = molecular target: T5, human Factor Xa (Homo sapiens, UniProt P00742); assay: Inhibition constants for human factor Xa, chromogenic substrate assay; settings: 25° C., Pefachrome FXa substrate, average of at least three determinations; read-out: Ki h FXa
T5 construct: human Factor Xa from Enzyme Research Laboratories; purchased Enzyme Research Laboratories
T5 sequence (P00742 235-488 limits assumed): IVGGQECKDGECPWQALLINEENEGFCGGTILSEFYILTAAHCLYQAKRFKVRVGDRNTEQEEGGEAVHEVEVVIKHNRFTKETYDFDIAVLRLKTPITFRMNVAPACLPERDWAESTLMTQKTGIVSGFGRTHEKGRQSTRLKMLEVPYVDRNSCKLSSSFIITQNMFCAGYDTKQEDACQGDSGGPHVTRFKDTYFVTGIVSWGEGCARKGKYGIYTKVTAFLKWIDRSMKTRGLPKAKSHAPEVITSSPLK
T5 sequence (P00742 41-179 partner limits assumed): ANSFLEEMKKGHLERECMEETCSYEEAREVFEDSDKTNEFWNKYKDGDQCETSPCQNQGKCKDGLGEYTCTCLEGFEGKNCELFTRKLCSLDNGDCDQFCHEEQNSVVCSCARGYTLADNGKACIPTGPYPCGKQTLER
Experimental: as §1
(§4) 200 μL of TBS (0.05 M trishydroxymethylaminomethane; 0.154 M NaCl, 2% ethanol, pH 8.0)
as §2

[5] = molecular target: T6, Subcomponent "s" of Human Complement Component 1 (h C1s) (Homo sapiens, UniProt P09871); assay: Inhibition of human C1s (reference enzyme); settings: S-2314 substrate; read-out: Ki h Cls
T6 construct: purchased Calbiochem
T6 sequence (P09871 438-688 limits assumed): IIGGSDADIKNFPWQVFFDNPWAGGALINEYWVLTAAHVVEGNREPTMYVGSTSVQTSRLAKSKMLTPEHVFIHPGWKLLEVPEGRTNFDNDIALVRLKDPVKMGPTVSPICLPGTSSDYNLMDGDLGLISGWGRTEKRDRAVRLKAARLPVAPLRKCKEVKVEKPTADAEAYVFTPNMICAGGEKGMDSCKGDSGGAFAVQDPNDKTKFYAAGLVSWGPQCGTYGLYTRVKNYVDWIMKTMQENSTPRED
T6 sequence (P09871 16-437 partner limits assumed): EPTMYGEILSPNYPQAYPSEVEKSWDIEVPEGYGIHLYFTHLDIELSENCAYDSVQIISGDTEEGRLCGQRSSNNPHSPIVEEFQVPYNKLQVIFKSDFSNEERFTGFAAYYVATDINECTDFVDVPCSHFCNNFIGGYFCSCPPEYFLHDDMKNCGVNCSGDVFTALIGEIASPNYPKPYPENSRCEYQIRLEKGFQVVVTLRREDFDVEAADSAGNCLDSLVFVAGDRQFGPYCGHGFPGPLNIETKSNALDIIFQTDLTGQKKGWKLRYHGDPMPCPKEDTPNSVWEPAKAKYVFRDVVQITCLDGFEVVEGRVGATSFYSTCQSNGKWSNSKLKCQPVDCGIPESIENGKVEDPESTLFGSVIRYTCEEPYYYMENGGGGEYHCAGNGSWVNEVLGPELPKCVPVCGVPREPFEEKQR
Experimental: as §1, §2, §3

[6] = molecular target: T7, Human urinary kallikrein (h uKK) (Homo sapiens, UniProt P06870); assay: Inhibition of human urinary kallikrein (reference enzyme); settings: S-2266 substrate
T7 construct: purchased Lee Biosolutions
T7 sequence (P06870 25-262): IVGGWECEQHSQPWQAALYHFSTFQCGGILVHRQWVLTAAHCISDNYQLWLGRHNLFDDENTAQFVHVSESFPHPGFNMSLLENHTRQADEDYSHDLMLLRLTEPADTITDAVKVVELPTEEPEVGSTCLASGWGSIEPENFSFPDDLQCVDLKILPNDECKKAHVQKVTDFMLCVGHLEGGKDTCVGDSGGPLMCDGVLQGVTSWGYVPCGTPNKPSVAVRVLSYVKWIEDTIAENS
Experimental: as §1, §2, §3

[7] = molecular target: T8, Human tissue-type plasminogen activator (h t-PA) (Homo sapiens, UniProt P00750); assay: Inhibition of human tissue-type plasminogen activator (reference enzyme); settings: Pefachrome tPA substrate; read-out: Ki h t-PA
T8 construct: purchased Boehringer Ingelheim Actilyse
T8 sequence (P00750 36-562): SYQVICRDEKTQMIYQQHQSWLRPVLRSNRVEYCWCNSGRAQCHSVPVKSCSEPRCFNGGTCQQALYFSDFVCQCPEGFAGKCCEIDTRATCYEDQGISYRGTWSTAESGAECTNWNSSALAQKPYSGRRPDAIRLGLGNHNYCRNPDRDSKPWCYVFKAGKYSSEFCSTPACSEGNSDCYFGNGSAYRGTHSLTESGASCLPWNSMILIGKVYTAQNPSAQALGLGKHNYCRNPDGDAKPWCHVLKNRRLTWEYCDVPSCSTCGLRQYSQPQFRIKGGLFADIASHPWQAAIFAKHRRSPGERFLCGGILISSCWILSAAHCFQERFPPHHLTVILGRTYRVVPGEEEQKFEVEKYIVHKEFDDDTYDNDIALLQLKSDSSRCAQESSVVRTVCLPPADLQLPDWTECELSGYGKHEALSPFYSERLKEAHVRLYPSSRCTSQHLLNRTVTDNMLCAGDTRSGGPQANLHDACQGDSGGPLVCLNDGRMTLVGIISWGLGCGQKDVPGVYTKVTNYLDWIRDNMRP
Experimental: The equilibrium rates were used to calculate the inhibitor/enzyme dissociation constant (Ki values) by parameter fitting in accordance with the rate equation for competitive inhibition using GraFit (version 4 from Erithacus).
as §3

[8] = molecular target: T9, Human urokinase type plasminogen activator (h u-PA) (Homo sapiens, UniProt P00749); assay: Inhibition of human urokinase type plasminogen activator (reference enzyme); settings: H-Glu-Gly-Arg-pNA substrate
T9 construct: purchased MEDAC GmbH Urokinase HS medac
Experimental: as §1, §2, §3

[9] = molecular target: T10, human factor IIa (human alpha-thrombin) (Homo sapiens, UniProt P00734); assay: Inhibition constants for human factor IIa, chromogenic substrate assay; settings: 25° C., Pefachrome tPA substrate, average of at least three determinations; read-out: Ki h FIIa
T10 construct: human alpha-thrombin from Enzyme Research Laboratories; purchased Enzyme Research Laboratories
Experimental: as §1, §4, §2

Row | Compound | Ki [1] | Ki [2] | Ki [3] | Ki [4] | Ki (human Factor Xa) | Ki [5] | Ki [6] | Ki [7] | Ki [8] | Ki [9]
1 | NCc1ccc(Cl)cc1CNC(=O)[C@@H]1CCCN1C(=O)[C@@H](CC(=O)N1CC[C@@H](O)C1)NS(=O)(=O)Cc1ccccc1 [Compound 2.9] | > 50 µM | 0.93 µM | > 25 µM | > 10 µM | 0.0025 µM | > 50 µM | > 200 µM | > 20 µM | > 100 µM | 0.0012 µM
2 | NCc1ccc(Cl)cc1CNC(=O)[C@@H]1CCCN1C(=O)[C@@H](CC(=O)N1CC[C@H](O)C1)NS(=O)(=O)Cc1ccccc1 [Compound 2.10] | > 20 µM | 0.83 µM | > 20 µM | > 10 µM | 0.0011 µM | > 20 µM | > 100 µM | > 10 µM | > 100 µM | 0.0009 µM
3 | NCc1ccc(Cl)cc1CNC(=O)[C@@H]1CCCN1C(=O)[C@@H](CC(=O)N1CC[C@@H](N)C1)NS(=O)(=O)Cc1ccccc1 [Compound 2.11] | > 50 µM | 3.35 µM | > 50 µM | > 100 µM | 0.014 µM | > 100 µM | > 50 µM | > 100 µM | > 20 µM | 0.0059 µM
4 | NCc1ccc(Cl)cc1CNC(=O)[C@@H]1CCCN1C(=O)[C@@H](CC(=O)N1CC[C@H](N)C1)NS(=O)(=O)Cc1ccccc1 [Compound 2.12] | > 100 µM | 1.69 µM | > 25 µM | > 25 µM | 0.014 µM | > 30 µM | > 20 µM | > 100 µM | > 50 µM | 0.0029 µM
5 | NCc1ccc(Cl)cc1CNC(=O)[C@@H]1CNCCN1C(=O)[C@@H](CC(=O)N1CCCCC1)NS(=O)(=O)Cc1ccccc1 [Compound 2.13] | > 30 µM | 8.56 µM | > 30 µM | > 100 µM | 0.0014 µM | > 60 µM | > 20 µM | > 40 µM | > 100 µM | 0.0051 µM
6 | NCc1ccc(Cl)cc1CNC(=O)[C@@H]1CCCCN1C(=O)[C@@H](CC(=O)N1CCOCC1)NS(=O)(=O)Cc1ccccc1 [Compound 2.14] | > 50 µM | 4.53 µM | > 20 µM | > 50 µM | 0.0083 µM | > 50 µM | > 20 µM | > 50 µM | > 50 µM | 0.0003 µM
7 | NCc1ccc(Cl)cc1CNC(=O)[C@@H]1CCCCN1C(=O)[C@@H](CCC(=O)N1CCOCC1)NS(=O)(=O)Cc1ccccc1 [Compound 2.15] | > 20 µM | 7.2 µM | > 10 µM | > 5 µM | 0.0094 µM | > 50 µM | > 10 µM | > 10 µM | > 50 µM | 0.0007 µM
8 | CN(CC1CCNCC1)C(=O)C[C@@H](NS(=O)(=O)Cc1ccccc1)C(=O)N1CCC[C@H]1C(=O)NCc1cc(Cl)ccc1CN [Compound 2.16] | > 10 µM | 0.417 µM | > 100 µM | > 5 µM | 0.0015 µM | > 50 µM | > 50 µM | > 50 µM | > 100 µM | 0.0003 µM
9 | CC(=O)N1CCC(CN(C)C(=O)C[C@@H](NS(=O)(=O)Cc2ccccc2)C(=O)N2CCC[C@H]2C(=O)NCc2cc(Cl)ccc2CN)CC1 [Compound 2.17] | > 10 µM | 0.417 µM | > 40 µM | > 5 µM | 0.0037 µM | > 100 µM | > 20 µM | > 100 µM | > 40 µM | 0.0002 µM
10 | CN1CCN(C(=O)C[C@@H](NS(=O)(=O)Cc2ccccc2)C(=O)N2CCC[C@H]2C(=O)NCc2cc(Cl)ccc2CN)CC1 [Compound 2.18] | > 25 µM | 0.17 µM | > 100 µM | > 10 µM | 0.0079 µM | > 50 µM | > 20 µM | > 50 µM | > 100 µM | 0.0015 µM
11 | NCc1ccc(Cl)cc1CNC(=O)[C@@H]1CCCN1C(=O)[C@@H](CC(=O)N1CCNCC1)NS(=O)(=O)Cc1ccccc1 [Compound 2.19] | > 50 µM | 1.02 µM | > 30 µM | > 4.6 µM | 0.0015 µM | > 100 µM | > 5 µM | > 5 µM | > 15 µM | 0.0024 µM
12 | O=C(NCc1cc(Cl)ccc1-n1cnnn1)[C@@H]1CCCN1C(=O)[C@@H](CCC(=O)N1CCOCC1)NS(=O)(=O)Cc1ccccc1 [Compound 2.20] | > 30 µM | 0.74 µM | > 30 µM | 7.27 µM | 0.0038 µM | > 75 µM | > 50 µM | > 15 µM | > 100 µM | 0.0031 µM
13 | O=C(NCc1cc(Cl)ccc1-n1cnnn1)[C@@H]1C[C@H](O)CN1C(=O)[C@@H](CCC(=O)N1CCOCC1)NS(=O)(=O)Cc1ccccc1 [Compound 2.21] | > 100 µM | 1.2 µM | > 50 µM | 10.8 µM | 0.0053 µM | > 50 µM | > 100 µM | > 20 µM | > 100 µM | 0.159 µM
14 | NCc1ccc(Cl)cc1CNC(=O)[C@@H]1C[C@H](O)CN1C(=O)[C@@H](CCC(=O)N1CCOCC1)NS(=O)(=O)Cc1ccccc1 [Compound 2.22] | > 100 µM | 2.69 µM | > 25 µM | > 100 µM | 0.00068 µM | > 50 µM | > 100 µM | > 100 µM | > 100 µM | 0.085 µM
15 | N[C@H]1C[C@@H](C(=O)NCc2cc(Cl)ccc2-n2cnnn2)N(C(=O)[C@@H](CCC(=O)N2CCOCC2)NS(=O)(=O)Cc2ccccc2)C1 [Compound 2.23] | > 40 µM | 0.39 µM | 6.7 µM | 1.99 µM | 0.00032 µM | > 70 µM | > 50 µM | 4.8 µM | > 100 µM | 0.0067 µM
